Source: patent US9783532B2, “Molecules having certain pesticidal utilities, and intermediates, compositions, and processes related thereto” (Dow AgroSciences LLC, priority 2013, dated 2017)
Like-named read-outs stand apart in the source and are kept apart here.

Assays:
Type in all cases: in vivo
[1] = system: Cabbage Looper (Trichoplusia ni) ("CL"); assay: Bioassay on cabbage looper (CL), 128-well diet tray assay; conditions: for pest or weed control at 50 µg/cm2: activity rating class, read-out: CL (Biological Results, Insect species)
Outline: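 Second-instar larvae (one to five per well) placed on artificial diet surface-treated with 50 μg/cm^2 compound in 90:10 acetone-water, dried before infestation. Held 25 °C, 14:10 light-dark for five to seven days; percent mortality scored per well and averaged over eight wells.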

[2] = system: Yellow Fever Mosquito "YFM" (Aedes aegypti); conditions: for YFM % Control (or Mortality) rating: about 1 day-old larvae, 96-well plate, room temperature, 3 days; for YFM (Biological Results, Insect species): activity rating class
Protocol: Certain molecules disclosed in this document were tested against YFM using procedures described in the following paragraph. In the reporting of the results, the “YFM Rating Table” was used (See Table Section).
Master plates containing 400 μg of a molecule dissolved in 100 μL of dimethyl sulfoxide (DMSO) (equivalent to a 4000 ppm solution) are used. A master plate of assembled molecules contains 15 μL per well. To this plate, 135 μL of a 90:10 wateracetone mixture is added to each well. A robot (Biomek® NXP Laboratory Automation Workstation) is programmed to dispense 15 μL aspirations from the master plate into an empty 96-well shallow plate (“daughter” plate). There are 6 reps (“daughter” plates) created per master. The created daughter plates are then immediately infested with YFM larvae.
The day before plates are to be treated, mosquito eggs are placed in Millipore water containing liver powder to begin hatching (4 g. into 400 mL). After the daughter plates are created using the robot, they are infested with 220 μL of the liver powder/larval mosquito mixture (about 1 day-old larvae). After plates are infested with mosquito larvae, a non-evaporative lid is used to cover the plate to reduce drying. Plates are held at room temperature for 3 days prior to grading. After 3 days, each well is observed and scored based on mortality.

[3] = system: Beet Armyworm (Spodoptera exigua) ("BAW"); assay: Bioassay on beet armyworm (BAW), 128-well diet tray assay; conditions: for mortality at 50 µg/cm2: 168 h, 50 μg/cm^2 on artificial diet, second instar BAW larvae, 25° C., five to seven days, average of eight wells, read-out: BAW % Control (or Mortality) rating; for pest or weed control at 50 µg/cm2: activity rating class, read-out: BAW (Biological Results, Insect species)
Outline: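 Second-instar larvae (one to five per well) were placed on artificial diet surface-treated with 50 μg/cm^2 compound applied in 90:10 acetone-water and dried, eight wells per compound. Held at 25° C., 14:10 light-dark for five to seven days; percent mortality was scored per well and averaged over the eight wells.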

Compound	pest or weed control at 50 µg/cm2 ([1]; Table ABC (FB)) [%]	YFM (Biological Results, Insect species) ([2]; Table ABC (FB))	pest or weed control at 50 µg/cm2 ([3]; Table ABC (FB)) [%]	other results
Cc1ccc(C(C)C)c(N2C(=O)CS/C2=N\C(=O)NCCCc2ccc(-c3ncn(-c4ccc(OC(F)(F)F)cc4)n3)cc2)c1 [F20, (Z)-1-(3-(2-isopropyl-5-methylphenyl)-4-oxothiazolidin-2-ylidene)-3-(3-(4-(1-(4-(trifluoromethoxy)phenyl)-1H-1,2,4-triazol-3-yl)phenyl)propyl)urea]	–	–	–	mortality at 50 µg/cm2 ([1]; 168 h, 50 μg/cm^2 on artificial diet, second instar CL larvae, 25° C., five to seven days, average of eight wells, read-out: CL % Control (or Mortality) rating): 50 to 100%; YFM % Control (or Mortality) rating [2]: A (80-100); mortality at 50 µg/cm2 [3]: 50 to 100%
Cc1ccc(N2C(=O)CS/C2=N\C(=O)NCCCCc2ccc(-c3ncn(-c4ccc(OC(F)(F)F)cc4)n3)cc2)c(C)c1 [FB17, (Z)-1-(3-(2,4-dimethylphenyl)-4-oxothiazolidin-2-ylidene)-3-(4-(4-(1-(4-(trifluoromethoxy)phenyl)-1H-1,2,4-triazol-3-yl)phenyl)butyl)urea]	50 to 100	A (80-100)	50 to 100	–
CC(C)c1ccc(Cl)cc1N1C(=O)CS/C1=N\C(=O)NCCc1ccc(-c2ncn(-c3ccc(OC(F)(F)F)cc3)n2)cc1 [FB40, (Z)-1-(3-(5-chloro-2-isopropylphenyl)-4-oxothiazolidin-2-ylidene)-3-(4-(1-(4-(trifluoromethoxy)phenyl)-1H-1,2,4-triazol-3-yl)phenethyl)urea]	50 to 100	A (80-100)	50 to 100	–
Cc1ccc(C(C)C)c(N2C(=O)CCS/C2=N\C(=O)NCCc2ccc(-c3ncn(-c4ccc(OC(F)(F)F)cc4)n3)cc2)c1 [FB41]	50 to 100	A (80-100)	50 to 100	–
CC(Cc1ccc(-c2ncn(-c3ccc(OC(F)(F)F)cc3)n2)cc1)NC(=O)/N=C1\SCC(=O)N1c1cc(Cl)ccc1C(C)C (centres unmarked) [FB42]	50 to 100	A (80-100)	50 to 100	–
Cc1ccc(N2C(=O)CS/C2=N\C(=O)NC(C)Cc2ccc(-c3ncn(-c4ccc(OC(F)(F)F)cc4)n3)cc2)c(C(C)C)c1 (centres unmarked) [FB48, (Z)-1-(3-(2-isopropyl-4-methylphenyl)-4-oxothiazolidin-2-ylidene)-3-(1-(4-(1-(4-(trifluoromethoxy)phenyl)-1H-1,2,4-triazol-3-yl)phenyl)propan-2-yl)urea]	50 to 100	A (80-100)	50 to 100	–
CC(C)c1ccc(Cl)cc1N1C(=O)CS/C1=N\C(=O)NCC(C)c1ccc(-c2ncn(-c3ccc(OC(F)(F)F)cc3)n2)cc1 (centres unmarked) [FB49, (Z)-1-(3-(5-chloro-2-isopropylphenyl)-4-oxothiazolidin-2-ylidene)-3-(2-(4-(1-(4-(trifluoromethoxy)phenyl)-1H-1,2,4-triazol-2,4-triazol-3-yl)phenyl)propyl)urea]	50 to 100	A (80-100)	50 to 100	–
Cc1ccc(C(C)C)c(N2C(=O)CS/C2=N\C(=O)N(C)CCc2ccc(-c3ncn(-c4ccc(OC(F)(F)F)cc4)n3)cc2)c1 [FB51]	50 to 100	A (80-100)	50 to 100	–
Cc1ccc(C(C)C)c(N2C(=O)CS/C2=N\C(=O)NCC(C)(C)c2ccc(-c3ncn(-c4ccc(OC(F)(F)F)cc4)n3)cc2)c1 [FB53, (Z)-1-(3-(2-isopropyl-5-methylphenyl)-4-oxothiazolidin-2-ylidene)-3-(2-methyl-2-(4-(1-(4-(trifluoromethoxy)phenyl)-1H-1,2,4-triazol-3-yl)phenyl)propyl)urea]	50 to 100	B (More than 0-Less than 80)	50 to 100	–
CCN(CCc1ccc(-c2ncn(-c3ccc(OC(F)(F)F)cc3)n2)cc1)C(=O)/N=C1\SCC(=O)N1c1cc(C)ccc1C(C)C [FB54, (Z)-1-ethyl-3-(3-(2-isopropyl-5-methylphenyl)-4-oxothiazolidin-2-ylidene)-1-(4-(1-(4-(trifluoromethoxy)phenyl)-1H-1,2,4-triazol-3-yl)phenethyl)urea]	50 to 100	A (80-100)	50 to 100	–
CCc1cc(C)ccc1N1/C(=N/C(=O)NCCc2ccc(-c3ncn(-c4ccc(OC(F)(F)F)cc4)n3)cc2)SCC1C (centres unmarked) [FB56, (Z)-1-(3-(2-ethyl-4-methylphenyl)-4-methylthiazolidin-2-ylidene)-3-(4-(1-(4-(trifluoromethoxy)phenyl)-1H-1,2,4-triazol-3-yl)phenethyl)urea]	50 to 100	A (80-100)	50 to 100	–
CC(C)c1cc(F)ccc1N1/C(=N/C(=O)NCCc2ccc(-c3ncn(-c4ccc(OC(F)(F)F)cc4)n3)cc2)SCC1C (centres unmarked) [FB57]	50 to 100	A (80-100)	50 to 100	–
COc1ccc(N2/C(=N/C(=O)NCCc3ccc(-c4ncn(-c5ccc(OC(F)(F)F)cc5)n4)cc3)SCC2C)c(C)c1 (centres unmarked) [FB58, (Z)-1-(3-(4-methoxy-2-methylphenyl)-4-methylthiazolidin-2-ylidene)-3-(4-(1-(4-(trifluoromethoxy)phenyl)-1H-1,2,4-triazol-3-yl)phenethyl)urea]	50 to 100	A (80-100)	50 to 100	–
Cc1cccc(C)c1N1/C(=N/C(=O)NCCc2ccc(-c3ncn(-c4ccc(OC(F)(F)F)cc4)n3)cc2)SCC1C (centres unmarked) [FB59, (Z)-1-(3-(2,6-dimethylphenyl)-4-methylthiazolidin-2-ylidene)-3-(4-(1-(4-(trifluoromethoxy)phenyl)-1H-1,2,4-triazol-3-yl)phenethyl)urea]	50 to 100	A (80-100)	50 to 100	–
CCC(CNC(=O)/N=C1\SCC(=O)N1c1ccccc1C(C)C)c1ccc(-c2ncn(-c3ccc(OC(F)(F)F)cc3)n2)cc1 (centres unmarked) [P209, (Z)-1-(3-(2-isopropylphenyl)-4-oxothiazolidin-2-ylidene)-3-(2-(4-(1-(4-(trifluoromethoxy)phenyl)-1H-1,2,4-triazol-3-yl)phenyl)butyl)urea]	–	–	–	YFM % Control (or Mortality) rating [2]: A (80-100); mortality at 50 µg/cm2 [3]: 50 to 100%
CCC(CNC(=O)/N=C1\SCC(=O)N1c1cc(OC)ccc1C(C)C)c1ccc(-c2ncn(-c3ccc(OC(F)(F)F)cc3)n2)cc1 (centres unmarked) [P683, (Z)-1-(3-(2-isopropyl-5-methoxyphenyl)-4-oxothiazolidin-2-ylidene)-3-(2-(4-(1-(4-(trifluoromethoxy)phenyl)-1H-1,2,4-triazol-3-yl)phenyl)butyl)urea]	–	–	–	YFM % Control (or Mortality) rating [2]: A (80-100); mortality at 50 µg/cm2 [3]: 50 to 100%
CCC(CNC(=O)/N=C1\SCC(=O)N1c1ccc(F)cc1C(C)C)c1ccc(-c2ncn(-c3ccc(OC(F)(F)F)cc3)n2)cc1 (centres unmarked) [P1163]	–	–	–	YFM % Control (or Mortality) rating [2]: D (No activity noticed in this bioassay); mortality at 50 µg/cm2 [3]: 50 to 100%
CCc1cccc(C)c1NC(=S)NC(=O)NCCCCc1ccc(-c2ncn(-c3ccc(OC(F)(F)F)cc3)n2)cc1 [PC153, 1-[(2-ethyl-6-methyl-phenyl)carbamothioyl]-3-[4-[4-[1-[4-(trifluoromethoxy)phenyl]-1H-1,2,4-triazol-3-yl]phenyl]butyl]urea]	–	–	–	pest or weed control at 50 µg/cm2 ([1]; Table ABC (PC)): 50 to 100%; YFM (Biological Results, Insect species) ([2]; Table ABC (PC)): B (More than 0-Less than 80)
CC(C)c1ccccc1NC(=S)NC(=O)NCCCCc1cccc(-c2ncn(-c3ccc(OC(F)(F)F)cc3)n2)c1 [PC172, 1-[(2-isopropylphenyl)carbamothioyl]-3-[4-[3-[1-[4-(trifluoromethoxy)phenyl]-1H-1,2,4-triazol-3-yl]phenyl]butyl]urea]	–	–	–	pest or weed control at 50 µg/cm2 ([1]; Table ABC (PC)): 50 to 100%; pest or weed control at 50 µg/cm2 ([3]; Table ABC (PC)): 50 to 100%
Cc1ccc(C(C)C)c(NC(=S)NC(=O)NCCCCc2cccc(-c3ncn(-c4ccc(OC(F)(F)F)cc4)n3)c2)c1 [PC176, 1-[(2-isopropyl-5-methyl-phenyl)carbamothioyl]-3-[4-[3-[1-[4-(trifluoromethoxy)phenyl]-1H-1,2,4-triazol-3-yl]phenyl]butyl]urea]	–	–	–	pest or weed control at 50 µg/cm2 ([1]; Table ABC (PC)): 50 to 100%; pest or weed control at 50 µg/cm2 ([3]; Table ABC (PC)): 0 to 50%
CCc1cccc(C)c1NC(=S)NC(=O)NCCCCc1cccc(-c2ncn(-c3ccc(OC(F)(F)F)cc3)n2)c1 [PC179, 1-[(2-ethyl-6-methyl-phenyl)carbamothioyl]-3-[4-[3-[1-[4-(trifluoromethoxy)phenyl]-1H-1,2,4-triazol-3-yl]phenyl]butyl]urea]	–	–	–	pest or weed control at 50 µg/cm2 ([1]; Table ABC (PC)): 50 to 100%; pest or weed control at 50 µg/cm2 ([3]; Table ABC (PC)): 0 to 50%
